We go through 10 molecules from patent US7109177B2, “Methods and compositions for the manufacture of C-3′ and C-4′ anthracycline antibiotics” (Houston Pharmaceuticals, Inc., priority 1999, dated 2006).

Where “and” joins values, the source holds several entries; their conditions need not be identical. Equal entries are not always repeated. Where two headings read alike, the source gives them in different places. Some results are limits rather than exact numbers.

The subject of one data set is human carcinoma KB cells. Description: MTT cytotoxicity assay, sensitive KB cells. Type of data set: cell-based. As to the method:
(§1) In vitro drug cytotoxicities against human breast carcinoma wild-type MCF-7 and MRP-resistant MCF-7NP-16 cells were assessed by using the […], as previously reported (Green et al., 1984). […] Drugs were then added to the wells to achieve a final drug concentration ranging from 0.1 to 50 μg/mL. Four wells were used for each concentration. […] After a 4-hour incubation, 100 μL of buffer containing 50% N,N-dimethylformamide and 20% SDS was added to solubilize the MTT formazan. […] Results and Discussion
(§2) Thus, for the in vitro evaluation of substituted anthracyclines having C-3′ alkylated anthracyclines modified at benzyl ring and having 4′-substituted-benzylated anthracyclines, the inventors selected two sensitive cell lines: a human carcinoma KB and MCF-7 human breast cancer, the multi-drug-resistant (MDR) counterpart of KB (KBV1 carcinoma), which overexpresses MDR1 gene that encodes a membrane transport glycoprotein (P-gp), the MCF-7NVP-16 cell line that overexpresses the multi-drug-resistant associated protein (MRP), and the MCF-7/dox cell line which overexpresses MDR1 gene.
A general note: Tetrazolium assays rely on reduction of a dye to a coloured formazan, in cell work by metabolically active cells.

For a further data set, the system named is breast tumors. The data set can be described thus: In vivo prevention of tumor development in a mouse cancer model. The following applies: compared with buffer-treated control mice that develop tumors. On the procedure:
In an initial round of in vivo trials, a mouse model of human cancer with the histologic features and metastatic potential resembling tumors seen in humans (Katsumata et al., 1995) is used. The animals are treated with analogs of anthracyclines having C-3′-substitutions as described or anthracycline analogs with C-4′-substitutions synthesized in the present invention to determine the suppression of tumor development.
Two groups of mice of a suitable cancer model are treated with doses of substituted anthracyclines with substitutions at the C-3′-sugar or having C-4′-substituted sugar moietied. Several combinations and concentrations of the substituted anthracyclines are tested. Control mice are treated with buffer only.
The effect of substituted anthracyclines on the development of breast tumors is compared with the control group by examination of tumor size and histopathologic examination (breast tissue is cut and stained with hematoxylin and eosin) of breast tissue.

Data set [1] has as its system KB-V1 (KBV1) carcinoma cells. The data set can be described thus: MTT cytotoxicity assay, multi-drug-resistant KB-V1 cells (MDR1/P-gp). It is filed as cell-based, human. Details: ID50 KBV1: unit not given here. Particulars: for Effectiveness as measured by resistance index (RI), in words: in vitro, compared with daunorubicin or doxorubicin. On the procedure:
as §1, §2

The test system of data set [2] is sensitive and MDR tumor cell lines. Description: In vitro evaluation of cytotoxicity compared with DOX (cell line not given). It is filed as cell-based, human. The following applies: for Direct comparison of cytotoxicity with DOX, in words: effect of C-3′ and C-4′ substitutions on potency; for Cytotoxicity compared to DOX, in words: in vitro evaluation. On the procedure: as §1, §2

The test system of data set [3] is human breast carcinoma MCF-7 cells. On the set-up: unit not given beside the values.
Another data set has as its system MCF-7/DOX cells. The data set can be described thus: MTT cytotoxicity assay, MCF-7/DOX cells (MDR1).
In another data set the test system is CEM leukemic cells. Description: Quantitative apoptotic DNA fragmentation assay. It is filed as cell-based. Particulars: 24 h incubation. The source says: Results are from two independent studies carried out in duplicate.
The mark [4] stands for this setting: Table 2, MTT assay, mean of at least 4 experiments.

Protocol for MCF-7/VP-16 cells: Compounds synthesized using the methods described above were tested using a standard MTT. assay (Green et al., 1984) against human carcinoma sensitive (KB) and multi drug-resistant (KBV1) cells and MCF-7 and MCF-7/VP-16 resistant cells characterized as having the MRP (multi-drug resistant associated protein) phenotype.
In vitro drug cytotoxicities against human breast carcinoma wild-type MCF-7 and MRP-resistant MCF-7NP-16 cells were assessed by using the MT reduction assay, as previously reported (Green et al., 1984). […] Drugs were then added to the wells to achieve a final drug concentration ranging from 0.1 to 50 μg/mL. Four wells were used for each concentration. […] After a 4-hour incubation, 100 μL of buffer containing 50% N,N-dimethylformamide and 20% SDS was added to solubilize the MTT formazan.

`CC(=O)[C@]1(O)Cc2c(O)c3c(c(O)c2[C@@H](O[C@H]2C[C@H](N)[C@H](OCc4ccccc4)[C@H](C)O2)C1)C(=O)c1ccccc1C3=O` [WP783, 4′-O-Benzyl-4-demethoxydaunorubicin]: in the data set with human carcinoma KB cells (Table 3, under EXP. 2), the “ID50 KB” value amounted to 0.43 ± 0.21. For the same molecule, the “Tumor development in treated mice, predicted” value (shortened to “Tumor development … predicted”) in the data set on breast tumors is “resistant to tumor development”. Further, in data set [1] (Table 3, under EXP. 2), the “ID50 KBV1” value turned out to be 1.1 ± 0.8 and the “RI (KBV1 vs KB)” value worked out at 2.6. The “Effectiveness as measured by resistance index (RI), in words” value in data set [1] was “significantly more effective”. Further, in data set [2], the “Direct comparison of cytotoxicity with DOX, in words” value is “drastically increase the potency” and the “Cytotoxicity compared to DOX, in words” value is given as “unusually potent cytotoxic agents”.

On to `C[C@@H]1O[C@H](O[Si](C)(C)C(C)(C)C)C[C@H](N=[N+]=[N-])[C@@H]1O` [WP418, t-Butyldimethylsilyl 3-azido- -2,3,6-trideoxy-β-L-lyxo hexapyranose], for which the “Tumor development … predicted” value in the data set on breast tumors is on record as “resistant to tumor development”.

Turning to `COc1cccc2c1C(=O)c1c(O)c3c(c(O)c1C2=O)C[C@@](O)(C(=O)CO)C[C@@H]3O[C@H]1C[C@H](N)[C@H](O)[C@H](C)O1` [DOX, doxorubicin, reference compound], the “ID50 KB” value in the data set with human carcinoma KB cells (setting [4]) was 0.50 ± 0.0 µg/mL and 0.43 ± 0.19 µg/mL; with human carcinoma KB cells (Table 3, EXP. 1) it was 2.35. Also, the “ID50 MCF-7” value was 0.3 in data set [3] (Table 3, EXP. 1); 0.50 ± 0.26 and 0.53 ± 0.25 in data set [3] (Table 3, under EXP. 2). Besides, the “ID50 MCF-7/DOX” value with MCF-7/DOX cells (Table 3, EXP. 1) is more than 100; in the data set on MCF-7/DOX cells (Table 3, under EXP. 2), more than 100. For the same molecule, the “RI (MCF-7/DOX vs MCF-7)” value with MCF-7/DOX cells (Table 3, EXP. 1) is given as more than 333; in the data set with MCF-7/DOX cells (Table 3, under EXP. 2), more than 189. Also, the “ID50 MCF-7/VP-16” value was 3.0 with MCF-7/VP-16 cells (Table 3, EXP. 1); 8.3 ± 0.5 and 6.87 ± 0.58 with MCF-7/VP-16 cells (Table 3, under EXP. 2). Moreover, the “RI (MCF-7/VP-16 vs MCF-7)” value in the data set with MCF-7/VP-16 cells (Table 3, EXP. 1) was 10; in the data set with MCF-7/VP-16 cells (Table 3, under EXP. 2), 16.6 and 13. Further, the “ID50 KB-V1” value in data set [1] (setting [4]) was >100 µg/mL and 109 ± 28 µg/mL. Also, in data set [1] (Table 2, higher RI = less effective against MDR), the “RI (resistance index) KB-V1 vs KB” value is listed as more than 200. In addition, the “ID50 KBV1” value is more than 100 in data set [1] (Table 3, EXP. 1); 174 ± 32 and >100 in data set [1] (Table 3, under EXP. 2). In addition, the “RI (KBV1 vs KB)” value in data set [1] (Table 3, EXP. 1) is recorded as more than 42.6. Moreover, the “Fragmented DNA, % Total DNA” value in the data set with CEM leukemic cells (0.1 μM) is on record as −0.2%; in the data set on CEM leukemic cells (0.5 μM), 27.1%; with CEM leukemic cells (1 μM), 28.7%; in the data set with CEM leukemic cells (2 μM), 38.3%.

`CCCCC(=O)OCC(=O)[C@]1(O)Cc2c(O)c3c(c(O)c2[C@@H](O[C@H]2C[C@H](O)[C@H](OCc4ccccc4)[C@H](C)O2)C1)C(=O)c1c(OC)cccc1C3=O` [WP571, 3-deamino-4-O-benzyl-3-O-hydroxy-14-O-pentanoyl-doxorubicin]: the “Tumor development … predicted” value in the data set on breast tumors was “resistant to tumor development”. Moreover, the “Cytotoxicity compared to DOX, in words” value in data set [2] is given as “unusually potent cytotoxic agents”.

Take `COc1cccc2c1C(=O)c1c(O)c3c(c(O)c1C2=O)C[C@@](O)(C(=O)CO)C[C@@H]3O[C@H]1C[C@H](N)[C@@H](OCc2ccccc2)[C@H](C)O1` [WP750, 4′-O-Benzyl-4′epi-doxorubicin]: the “ID50 KB” value in the data set on human carcinoma KB cells (Table 3, under EXP. 2) turned out to be 6.4. For the same molecule, the “Tumor development … predicted” value in the data set with breast tumors is given as “resistant to tumor development”. In addition, in data set [1] (Table 3, under EXP. 2), the “ID50 KBV1” value was 56 ± 29 and the “RI (KBV1 vs KB)” value is on record as 8.8. In addition, the “Effectiveness as measured by resistance index (RI), in words” value in data set [1] is given as “significantly more effective”. In data set [2], the “Direct comparison of cytotoxicity with DOX, in words” value was “drastically increase the potency” and the “Cytotoxicity compared to DOX, in words” value is on record as “unusually potent cytotoxic agents”.

On to `COc1cccc2c1C(=O)c1c(O)c3c(c(O)c1C2=O)C[C@@](O)(C(=O)CO)C[C@@H]3O[C@H]1C[C@H](O)[C@H](OCc2ccccc2)[C@H](C)O1` [WP727, 4-O-benzyl-3-deamino-3-hydroxy-doxorubicin], for which, in the data set with breast tumors, the “Tumor development … predicted” value is “resistant to tumor development”. Besides, the “Cytotoxicity compared to DOX, in words” value in data set [2] is recorded as “unusually potent cytotoxic agents”.

`CC(=O)[C@]1(O)Cc2c(O)c3c(c(O)c2[C@@H](O[C@H]2C[C@H](N)[C@H](OCc4ccc(F)cc4)[C@H](C)O2)C1)C(=O)c1ccccc1C3=O` [WP797, 4′-(4-Fluoro-benzyloxy)-4-demethoxydaunorubicine]: the “Tumor development … predicted” value with breast tumors is “resistant to tumor development”. The “Cytotoxicity compared to DOX, in words” value in data set [2] is “unusually potent cytotoxic agents”.

With `COc1cccc2c1C(=O)c1c(O)c3c(c(O)c1C2=O)C[C@@](O)(C(=O)CO)C[C@@H]3O[C@H]1C[C@H](N)[C@H](OCc2c(F)cccc2F)[C@H](C)O1` [WP799, 4′-(2,6-difluoro-benzyloxy)-doxorubicine], in the data set on breast tumors, the “Tumor development … predicted” value was “resistant to tumor development”. For the same molecule, the “Cytotoxicity compared to DOX, in words” value in data set [2] was “unusually potent cytotoxic agents”.

`CC(=O)O[C@H]1[C@@H](N=[N+]=[N-])C[C@@H](O[Si](C)(C)C(C)(C)C)O[C@H]1C` [WP417, 4-O-acetyl-3-Azido-1-O-t-butyldimethylsilyl-2,3,6-trideoxy-β-L-lyxo hexapyranose]: in the data set with breast tumors, the “Tumor development … predicted” value is given as “resistant to tumor development”.

On to `COc1cccc2c1C(=O)c1c(O)c3c(c(O)c1C2=O)C[C@@](O)(C(=O)CO)C[C@@H]3O[C@H]1C[C@H](N)[C@H](OCc2ccccc2)[C@H](C)O1` [WP744, 4′-O-Benzyl-doxorubicin], for which, in the data set with human carcinoma KB cells (Table 3, EXP. 1), the “ID50 KB” value is 1.44 ± 0.45. The “Tumor development … predicted” value in the data set with breast tumors is “resistant to tumor development”. Besides, in data set [3] (Table 3, EXP. 1), the “ID50 MCF-7” value is recorded as 1.63 ± 0.5. Also, the “ID50 MCF-7/DOX” value in the data set on MCF-7/DOX cells (Table 3, EXP. 1) is 5.25; in the data set on MCF-7/DOX cells (Table 3, under EXP. 2) it was 0.89 ± 0.10. For the same molecule, the “RI (MCF-7/DOX vs MCF-7)” value was determined as 3.22 in the data set with MCF-7/DOX cells (Table 3, EXP. 1) and 2.41 with MCF-7/DOX cells (Table 3, under EXP. 2). The “ID50 MCF-7/VP-16” value in the data set on MCF-7/VP-16 cells (Table 3, EXP. 1) came to 2.3 ± 1.9. Further, the “RI (MCF-7/VP-16 vs MCF-7)” value in the data set on MCF-7/VP-16 cells (Table 3, EXP. 1) was 1.41; with MCF-7/VP-16 cells (Table 3, under EXP. 2), 1.4 and 1.6. For the same molecule, the “ID50 KBV1” value was 2.76 ± 0.52 in data set [1] (Table 3, EXP. 1); 2.1 ± 0.5 and 4.07 ± 1.85 in data set [1] (Table 3, under EXP. 2). Also, the “RI (KBV1 vs KB)” value in data set [1] (Table 3, EXP. 1) came out at 1.84. In addition, in data set [1], the “Effectiveness as measured by resistance index (RI), in words” value is reported as “significantly more effective”. The “Fragmented DNA, % Total DNA” value in the data set with CEM leukemic cells (0.05 μM) was 17.8%; in the data set with CEM leukemic cells (0.1 μM), 31.3%; in the data set with CEM leukemic cells (0.5 μM), 46.7%. Besides, the “Cytotoxicity compared to DOX, in words” value in data set [2] is “unusually potent cytotoxic agents”.
